From ChEMBL document CHEMBL1157176, “Total syntheses of (+/-)-ovalicin, C4(S *)-isomer, and its C5-analogs and anti-trypanosomal activities” (Bioorg Med Chem, 2008) come the findings set out here.

For one assay, the system named is Trypanosoma brucei. Description: Antitrypanosomal activity against Trypanosoma brucei 427 after 48 hrs by luciferase assay. To be noted: Trypanosoma brucei, 427, 48 h. The format is functional, organism-based.
Another assay concerns HL-60. Description: Antiproliferative activity against human HL60 cells. The format is functional, cell-based.

The source made the active and inactive calls. No cut-off for these calls is given here.

In the case of `CO[C@@H]1[C@H](O[Si](C)(C)C(C)(C)C)CC[C@]2(CO2)[C@@]1(O)/C(C)=C/CC=C(C)C` (relative stereo), in the assay on Trypanosoma brucei, the IC50 (in general, the concentration at which inhibition is half-maximal) was 0.4 µM.

In the assay with Trypanosoma brucei, `O=C(O[C@@H]1CC[C@]2(CO2)[C@@H](O)[C@H]1O)c1ccccc1` (relative stereo) gave an IC50 of 0.72 µM.

In the case of `CO[C@H]1C(=O)[C@]2(CC[C@@H]1OC(=O)c1ccccc1)CO2` (relative stereo), the concentration for half-maximal inhibition (IC50) in the assay with Trypanosoma brucei stood at 47.3 µM.

Take `CO[C@@H]1C(=O)CC[C@]2(CO2)[C@]1(O)/C(C)=C/CC=C(C)C` (relative stereo): in the assay on Trypanosoma brucei, the IC50 was determined as 41.5 µM.

Regarding `O=C(O[C@H]1CC[C@]2(CO2)[C@H](O)[C@@H]1O)c1ccccc1` (relative stereo), in the assay with Trypanosoma brucei, the IC50 stood at 325 µM.

For `CO[C@@H]1[C@@H](OC(=O)c2ccccc2)CC[C@]2(CO2)[C@]1(O)/C(C)=C/CC=C(C)C` (relative stereo), the IC50 with Trypanosoma brucei amounted to 4.2 µM.

The compound `CO[C@@H]1[C@]2(CC[C@H](O[Si](C)(C)C(C)(C)C)[C@@]1(O)/C(C)=C/CC=C(C)C)CO2` (relative stereo) gave an IC50 in the assay with Trypanosoma brucei of 0.28 µM.

For the compound `CO[C@@H]1C(=O)CC[C@]2(CO2)[C@]1(O)[C@@]1(C)O[C@@H]1CC=C(C)C` (relative stereo), the outcome in the assay with HL-60 was Active.
